Molecules are shown by their SMILES.

The target in this assay is T1, Recombinant human HSP90α (Homo sapiens, UniProt P07900).
T1 construct: host or cells: E. coli
Briefly: radioligand filter binding test, competitive inhibition of [3H]17AAG binding to HSP90. The following applies: [3H]17AAG 0.08 μM, HSP90 1.5 μg/assay, 22° C., 30 min. From the text:
The binding of geldanamycin or 17-allylamino-17-demethoxygeldanamycin (17AAG) to HSP90 and competitive inhibition thereof can be utilised in order to determine the inhibitory activity of the compounds according to the invention (Carreras et al. 2003, Chiosis et al. 2002).
In the specific case, a radioligand filter binding test is used. The radio-ligand used here is tritium-labelled 17-allylaminogeldanamycin, [3H]17AAG. This filter binding test allows a targeted search for inhibitors which interfere with the ATP binding site. Material
Recombinant human HSP90α (E. coli expressed, 95% purity); [3H]17AAG (17-allylaminogeldanamycin, [allylamino-2,3-^3H. Specific activity: 1.11×10^12 Bq/mmol (Moravek, MT-1717);
HEPES filter buffer (50 mM HEPES, pH 7.0, 5 mM MgCl2, BSA 0.01%) Multiscreen FB (1 μm) filter plate (Millipore, MAFBNOB 50).
The 96-well microtitre filter plates are firstly irrigated and coated with 0.1% of polyethylenimine.
The test is carried out under the following conditions: • Reaction temperature 22° C. • Reaction time: 30 min., shaking at 800 rpm • Test volume: 50 μl • Final concentrations: • 50 mM HEPES HCl, pH 7.0, 5 mM MgCl2, 0.01% (w/v) BSA • HSP90: 1.5 μg/assay • [3H]17AAG: 0.08 μM.
At the end of the reaction, the supernatant in the filter plate is removed by suction with the aid of a vacuum manifold (Multiscreen Separation System, Millipore), and the filter is washed twice.
The filter plates are then measured in a beta counter (Microbeta, Wallac) with scintillator (Microscint 20, Packard).
“% of control” is determined from the “counts per minutes” values and the IC50 value of a compound is calculated therefrom.
`CCCCN(C)S(=O)(=O)c1cc(-c2nnc(O)n2-c2ccccc2Cl)c(O)cc1O` [A26, 5-[2,4-dihydroxy-5-(N-butyl-N-methylsulfamoyl)phenyl]-4-(2-chloro-phenyl)-3-hydroxy-4H-1,2,4-triazole]: the IC50 worked out at 120 nM.
Turning to `CCCN(C)S(=O)(=O)c1cc(-c2nnc(O)n2-c2ccccc2Cl)c(O)cc1O` [A28, 5-[2,4-dihydroxy-5-(N-propyl-N-methylsulfamoyl)phenyl]-4-(2-chloro-phenyl)-3-hydroxy-4H-1,2,4-triazole], the IC50 came to 160 nM.
For `CN(Cc1ccccc1)S(=O)(=O)c1cc(-c2nnc(O)n2-c2ccccc2Cl)c(O)cc1O` [A32, 5-[2,4-dihydroxy-5-(N-benzyl-N-methylsulfamoyl)phenyl]-4-(2-chloro-phenyl)-3-hydroxy-4H-1,2,4-triazole], the IC50 is 140 nM.
The result for `CCCN(C)S(=O)(=O)c1cc(-c2nnc(O)n2-c2ccccc2CC)c(O)cc1O` [A34, 5-[2,4-dihydroxy-5-(N-propyl-N-methylsulfamoyl)phenyl]-4-(2-ethyl-phenyl)-3-hydroxy-4H-1,2,4-triazole] reads 80 nM.
The result for `CCCN(C)S(=O)(=O)c1cc(-c2nnc(O)n2-c2cccc(Cl)c2)c(O)cc1O` [A38, 5-[2,4-dihydroxy-5-(N-propyl-N-methylsulfamoyl)phenyl]-4-(3-chloro-phenyl)-3-hydroxy-4H-1,2,4-triazole] reads 330 nM.
The result for `CCCN(C)S(=O)(=O)c1cc(-c2nnc(O)n2-c2cccc(F)c2)c(O)cc1O` [A39, 5-[2,4-dihydroxy-5-(N-propyl-N-methylsulfamoyl)phenyl]-4-(3-fluoro-phenyl)-3-hydroxy-4H-1,2,4-triazole] reads 180 nM; that for `CCCN(C)S(=O)(=O)c1cc(-c2nnc(O)n2-c2ccccc2C)c(O)cc1O` [A40, 5-[2,4-dihydroxy-5-(N-propyl-N-methylsulfamoyl)phenyl]-4-(2-methyl-phenyl)-3-hydroxy-4H-1,2,4-triazole], 140 nM.

Source of the values: patent US8618285B2, “Triazole derivatives” (Merck Patent GmbH, priority 2005, dated 2013).
